Where “and” joins values, the source holds several entries; their conditions need not be identical. Equal values may be shown once.

What all share (type): cell-based, human
The test system of one data set is KRAS 35G>A mutant G12D. Kind of data set: Indel frequencies at the endogenous target sequences (T7E1 / deep sequencing) after ADGN/Cas9 mRNA/gRNA transfection. As to conditions: for indel frequencies: deep sequencing, 72 hours after transfection, Cas9 mRNA 0.1 μg, gRNA 0.2 μg. The procedure:
Complex formation with mRNA:gRNA: ADGN peptide/mRNA/gRNA particles were prepared at a 20:1:1 molar ratio. ADGN/Cas9mRNA/sgRNA complexes were prepared at a 20/1/1 molar ratio with 0.5 μg mRNA: 1.5 μg sgRNA and 5% Glucose or DMEM (example for 96 well plates). […] Premixed Cas9 mRNA/gRNA were prepared in sterile water at room temperature in a glass vial (1-4 ml). ADGN-peptide solution was added dropwise (1 drop/sec) under magnetic agitation at 400 rpm to obtain a 1:2 ratio, and incubated for 30 min at room temperature or 37° C. Just before transfection, 150 μl Glucose or DMEM was added and the solution was mixed under magnetic agitation at 400 rpm for 1 minute. Then the solution was incubated for 5 min at 37° C. Then the complexes was ready for cell transfection or IV administration. Prior to IV administration, complexes were diluted in sucrose 5% solution.
Transfection protocol. The following protocols are reported for 24/48/96 well plate format transfection. Cells should be trypsinized and seeded a day prior transfection Cells were cultured in Dulbecco's Modified Eagle's Medium (DMEM), supplemented with 2 mM glutamine, 1% antibiotics (streptomycin 10,000 μg/mL, penicillin, 10,000 IU/mL) and 10% (w/v) foetal calf serum (FCS), at 37° C. in a humidified atmosphere containing 5% CO2. 96 well plates seeded with 50,000 cells, the day prior transfection, grown to 60-80% confluence and set up to be at around 70% confluence at the day of transfection. Before transfection, cells are washed twice with DMEM (without FBS and pen/strep) (100 μl/well). Cells were then overlaid with 25 μl of complex solution, mixed gently and incubated for 10 min at 37° C.+5% CO2. 50 μl of fresh DMEM (without FBS and Antibiotics) was added and cells were incubated for 2 h at 37° C.+5% CO2 (time of exposure can be adjusted based on sensitivity of the cells). 250 μL of DMEM (containing 10% FCS and 1% antibiotics) were then added without removing the overlay of ADGN peptide/mRNA complexes. Cells were returned to the incubator (37° C., 5% CO2) and analyzed 48 hours to 72 hours post transfection.
Nine different gRNAs targeting KRAS 35G>A mutant G12D (gRNA35A1, gRNA35A2, gRNA35A3, gRNA35A4, gRNA35A5, gRNA35A6; gRNA35A7, gRNA35A8, gRNA35A9) were evaluated on LS513, Panc1, PK-45H, and PK1 cancer cells harboring G12D KRAS mutation. Cas9 mRNA (0.1 μg) and gRNA (0.2 μg) were associated with ADGN-peptide at molar ratio 20/1 (peptide/nucleic acid). LS513, Panc1, PK-45H, PK1, HS-68 and HT-29 cells were cultured in 48 well plate format and treated with free mRNACas9-gRNA, or ADGN/mRNACas9:gRNA complex. Indel frequencies at the endogenous target sequences was evaluated 72 hours after transfection by either T7E1 method or deep sequencing. Cell proliferation was analyzed over a period of 5 days using CellTiter Glow kits on GlowMax (Promega).
(§1) In order to confirm the specificity of sgRNAs targeting G12V, G12C or G12D KRAS mutation, gRNA35T3 targeting G12V, gRNA34T6 targeting G12C, and gRNA35A5 targeting G12D were evaluated on a large panel of cancer cells harboring different KRAS mutations including SW403, SW480, PANC1, PK-45H, PK-1, MIA-PACA, H23, H358, HT-29, HS-68 and LS513. Cas9 mRNA (0.2 μg) and gRNA (0.4 μg) were associated with ADGN peptide at molar ratio 20/1 (peptide/nucleic acid). Cells were cultured in 48 well plate format and treated with free mRNACas9-gRNA, or ADGN/mRNACas9:gRNA complex. Indel frequencies at the endogenous target sequences was evaluated 72 hours after transfection by either T7E1 method and cell proliferation was analyzed over a period of 5 days using CellTiter Glow kits on GlowMax (Promega).

Data set [1] relates to G12V, G12D, G12C KRAS mutant cells and WT KRAS cells. Kind of data set: Specificity of lead sgRNAs on a large panel of cancer cells harboring different KRAS mutations (indel, proliferation). As to conditions: Cas9 mRNA 0.2 μg, gRNA 0.4 μg. How it is done: as §1
The next data set relates to phospho-Akt (Ser 473). Kind of data set: Western blot of KRAS downstream signaling 48 h post transfection. As to conditions: PANC-1 cells. The procedure: (§2) In order to verify the specific effect of your lead sgRNA targeting G12V and G12D KRAS mutation, gRNA35A5 G12D and gRNA35T3 G12V on KRAS signal transduction pathway in PANC-1 and SW403 cells, we measured the levels of downstream signaling proteins that are activated by KRAS. We specifically looked for changes in key signaling pathways, such as mitogen-activated protein kinase (MAPK) or PI3K/Akt, which are known to be the major effector pathways of KRAS activation. Cas9 mRNA (0.2 μg) and gRNA (0.2 μg or 0.5 μg) were associated with ADGN peptide at molar ratio 20/1 (peptide/nucleic acid). PANC1 and SW403 cells were cultured in 48 well plate format and treated with free mRNACas9-gRNA, or ADGN/mRNACas9:gRNA complex. Levels of Erk and Akt phosphorylation were measured 48 h post transfection by western blot using phospho-Akt (Ser 473) (CST, #9271, RRID:AB_329825) and phospho-p44/42 MAPK (Erk1/2) (Thr202/Tyr204) (CST, #4370, RRID:AB_2315112).
On the technique in general: Immunoblotting shows a protein as a band on a membrane.

In data set [2] the test system is phospho-p44/42 MAPK (Erk1/2) (Thr202/Tyr204). The description is as above. Conditions: PANC-1 cells. How it is done: as §2

In the case of “AGT TGG AGC TGA TGG CGT (guide AGTTGGAGCTGATGGCGT; chemistry not given here) [gRNA35A5, sgRNA target KRAS G12D mutation (35G>A); PAM AGG]”, in the data set with KRAS 35G>A mutant G12D (G12D cancer cells vs wild type KRAS cells (HT29 or HS-68)), the “disruption of G12D mutant KRAS (FIG. 2A)” value was “induced efficient disruption of G12D mutant KRAS”. Also, the indel frequency was above 70% in the data set with KRAS 35G>A mutant G12D (KRAS G12D mutated cancer cells); above 75% in the data set with KRAS 35G>A mutant G12D (PANC-1, PK-1, and PK-45H cells, T7E1, 72 hours, Cas9 mRNA 0.2 μg, gRNA 0.4 μg). In addition, the indel frequencies was 35 ± 4% in the data set with KRAS 35G>A mutant G12D (LS513 cells); 67% and 67 ± 5% in the data set on KRAS 35G>A mutant G12D (PANC1 cells); 78% and 78 ± 8% in the data set on KRAS 35G>A mutant G12D (PK1 cells); 75% and 75 ± 7% in the data set with KRAS 35G>A mutant G12D (PK-45H cells). The “effect on non-targeted KRAS mutant cells and WT KRAS cells (FIGS. 4A-4B)” value in data set [1] is “does not alter G12V and G12C KRAS mutant cells or WT KRAS cells”. Moreover, in the data set on phospho-Akt (Ser 473), the “level of p-AKT” value was “significantly reduced”. Also, the “level of P-Erk reduced by” value in data set [2] stood at 15%.

(Values after patent US20230167437A1, “COMPOSITIONS FOR TREATING CANCER WITH KRAS MUTATIONS AND USES THEREOF” (Aadigen, LLC, priority 2020, published 2023).)
